# What was measured:
# [1] = test system: AAC model of heart failure; experiment: Abdominal aortic constriction (AAC) pressure overload heart failure model, echocardiography; format: in vivo, mouse; conditions: for fractional shortening (FS %): prevention mode
# Text: Abdominal AAC, a common experimental procedure, was used to elicit pressure overload-induced heart failure in murine models. AAC provides a time-dependent, reproducible model of HF characterised by a significant rise in left ventricular weight, deleterious myocardial dilation, and a reduction in cardiac inotropy, and rise in myocardial fibrosis. Physiologically this mimics some of the clinical features of human aortic stenosis.
# Male C57BL6 mice (Charles River) underwent AAC surgery at 4-5 weeks of age (between 20 and 22 g). Mice were anaesthetised with isoflurane, placed in a supine position on the procedure table, and an incision made along the ventral underbelly, extending from the xiphoid process of the sternum, down to the groin to reveal the abdominal muscle. The abdominal muscle was then cut the same distance along the linea alba to allow easy reattachment of the two halves. The two sides of the abdominal muscles were clipped back to reveal the abdominal gastrointestinal organs, and these were carefully manoeuvred to expose the underlying abdominal aorta. The aorta was cleaned of visceral fats, and carefully separated from parallel vasculature, whilst avoiding any spinal nerves. The abdominal aorta was then constricted using a 6-0 silk suture tied to the width of a 27-gauge needle at a position rostral to the renal artery bifurcation. Great care was taken to ensure the knot remained taut after tying. This was to ensure minimal variability amongst aortic lumen occlusion between animals, and therefore minimise differences in the degree of aortic stenosis. The skin and abdominal muscles were closed with a 6-0 silk suture thread. SHAM operated mice underwent the same operation with the exception of aortic constriction. In an effort to ensure reproducibility amongst AAC surgeries only male mice weighing between 20 and 22 g (correlating to 4-5 weeks of age) were used. Echocardiography was performed up to 3 days prior to surgery, 3 weeks following surgery, and then at 6 (and/or 12 weeks) following surgery. At the experimental end-point, mice were sacrificed and their lungs, kidneys and hearts excised. Hearts were halved longitudinally and either snap frozen in liquid nitrogen (for immunohistochemistry) or stored in an RNA later stabilisation solution (for RT-quantitative PCR) (ThermoFisher Scientific, Hertfordshire, UK).
# Cilengitide (Bachem) was stored as a […] solution in saline at −20° C. prior to use, before thawing and serial diluting to an appropriate concentration with sterile saline for use. Injections were administered 3 times per week at the indicated doses intraperitoneally (IP). Low dose Cilengitide (ldCil) is classified as 50 μg/kg (27).
# Cardiac function was assessed by transthoracic echocardiography using a VisualSonics Vevo 770 30-MHz transduction probe. Mice were anaesthetised with isoflurane (1.5% in O2), hair removed from their chest with hair removal cream, and then were placed in a supine position onto a warmed pad (46° C.). The chest was covered in ultrasound gel, and the transduction probe was positioned adjacent to the mitral valve, at the tips of the papillary muscles, and images were taken just below this to ensure positional reproducibility. LV internal diameter (LVID) and LV posterior wall thicknesses at diastole (d) and systole (s) were measured from short-axis M-mode images. LV ejection fraction (EF %) was calculated as follows: LVEF %=[(LVIDd)^3−(LVIDs)^3]/(LVIDd)^3×100; LV fractional shortening (FS %) was calculated as follows: LVFS %=(LVIDd−LVIDs)/LVIDd×100. Values were averaged across three beats. All efforts were made to ensure consistency between mouse echocardiographs, including: pad temperature to be maintained at 46° C., isoflurane anaesthesia at 1.5%, oxygen flow at 1.5 L/M, and cardiac function to be measured in the same anatomical location throughout.
# [2] = Mean arterial blood pressure in AAC model; format: in vivo, mouse; conditions: intervention mode; 6 weeks post-AAC surgery
# Experimental: Blood pressure was recorded in anaesthetised mice via intra-arterial cannulation of a carotid artery 6 weeks post-AAC surgery, using a Microtip pressure catheter (Millar instruments). Mice were placed in a supine position on a pre-warmed heating mat (46° C.), and a midline incision made extending the length of the neck with surgical scissors. The large salivary glands were gently moved laterally, and a single carotid artery was located for cannulation. The carotid artery was blunt dissected to remove visceral fats, and then ligated with surgical suture at its most rostral and caudal ends, leaving a space of roughly 2 mm in between. A small incision was made between the two ties using fine dissection spring-tip scissors, and a microtip pressure catheter was inserted into the artery. The region of the artery housing the catheter was tied in place, and the caudal tie loosened to allow blood flow into the pressure catheter. Mice were allowed to recover for 5 min, or until the blood pressure trace steadied. MABP was then averaged across a 30 s period using MATLAB analysis. All efforts were made to ensure mouse body temperature, and levels of anaesthesia in particular, remained constant between animals.
# [3] = test system: pathological angiogenesis; conditions: cited from earlier work
# [4] = intervention mode, AAC surgery, ldCil 50 μg/kg 3 times a week from 3-6 weeks post-surgery
# [5] = low doses, 50 μg/kg in vivo or 2 nM in vitro
compound,measurement,setting,value
"CC(C)[C@H]1C(=O)N[C@@H](CCCN=C(N)N)C(=O)NCC(=O)N[C@@H](CC(=O)O)C(=O)N[C@H](Cc2ccccc2)C(=O)N1C [Cilengitide, c(f*VRGD)]",fractional shortening over time,"[1]; AAC surgery, ldCil 3-6 weeks post-surgery, between 3 and 6 weeks",elevated fractional shortening significantly
same,persistence of fractional shortening rescue after treatment cessation,"[1]; AAC surgery, ldCil 3-6 weeks post-surgery, followed to 12 weeks",sustained up until 12 weeks post-surgery
same,FS % over time,"[1]; SHAM surgery, ldCil 3-6 weeks post-surgery, between 3 and 6 weeks or 6 and 12 weeks",not significantly altered
same,endpoint FS %,[1]; [4],rescued
same,endpoint ejection fraction (EF %),[1]; [4],rescued
same,endpoint left ventricular internal diameter during systole (LVID),[1]; [4],rescued
same,fractional shortening (FS %),"[1]; AAC surgery, 50 μg/kg IP 3 times a week for 7 weeks immediately after surgery, endpoint 7 weeks",restored fractional shortening to that observed in SHAM treated mice
same,fractional shortening (FS %),"[1]; AAC surgery, 500 μg/kg IP 3 times a week for 7 weeks","but not 500 μg/kg, Cilengitide corrects the fractional shortening effects"
same,fractional shortening (FS %),"[1]; SHAM surgery, 50 μg/kg IP 3 times a week for 7 weeks",no significant effect
same,mean arterial blood pressure (MABP),[2],not affected
same,chemotherapy efficacy in cancer models in vivo,[3]; ldCil with chemotherapy,improve chemotherapy efficacy
same,effect on quiescent vasculature,[3]; [5],no apparent effects
same,pathological angiogenesis,[3]; [5],enhance pathological angiogenesis
